How the values were obtained:
[1] = test system: Klebsiella pneumoniae; assay: serial broth dilution, growth inhibition; format: cell-based; conditions: nutrient broth, incubated at 37° C. for 2 days
Procedure: (§1) Grove and W. A. Randall in "Assay Methods of Antibiotics", Med. Encycl. Inc., New York, 1955. […] 289.
(§2) For example, by employing a test like the serial broth dilution, see Grove and Randall, cited above, in which dilutions of the compounds of this invention in nutrient broth are inoculated with the microorganisms or fungi, described above, incubated at 37° C. for 2 days, respectively, and examined for the presence of growth, it may be shown that the preferred compounds N'N'-dicyclohexyl-α,α'-diisopropyl-2,5,8,11,14,17-hexaoxo-1,4,7,10,13,16-hexaazacyclooctadecane-1,10-diacetamide, isomer L, (Example 1), N'N'-dicyclohexyl-α,α'-diisopropyl-2,5,8,11,14,17-hexaoxo-1,4,7,10,13,16-hexaazacyclooctadecane-1,10-diacetamide, isomer M, (Example 1), and α,α'-diphenyl-N'N'-dicyclohexyl-2,5,8,11,14,17-hexaoxo-1,4,7,10,13,16-hexaazacyclooctadecane-1,10-diacetamide, isomer L, (Example 1) are able to inhibit growth totally in this system of Klebsiella pneumoniae and Serratia marcescens at a concentration of 100 mcg/ml.

[2] = test system: Serratia marcescens; assay: serial broth dilution, growth inhibition; format: cell-based; conditions: nutrient broth, incubated at 37° C. for 2 days
Procedure: as §1, §2

| SMILES | concentration able to inhibit growth totally [1] | concentration able to inhibit growth totally [2] |
| --- | --- | --- |
| CC(C)C(C(=O)NC1CCCCC1)N1CC(=O)NCC(=O)NCC(=O)N(C(C(=O)NC2CCCCC2)C(C)C)CC(=O)NCC(=O)NCC1=O (stereo not drawn) [N,N'-Dicyclohexyl-α,α'-diisopropyl-2,5,8,11,14,17-hexaoxo-1,4,7,10,13,16-hexaazacyclooctadecane-1,10-diacetamide] | 100 µg/mL | 100 µg/mL |
| O=C1CNC(=O)CN(C(C(=O)NC2CCCCC2)c2ccccc2)C(=O)CNC(=O)CNC(=O)CN(C(C(=O)NC2CCCCC2)c2ccccc2)C(=O)CN1 (stereo not drawn) [α,α'-diphenyl-N,N'-dicyclohexyl-2,5,8,11,14,17-hexaoxo-1,4,7,10,13,16-hexaazacyclooctadecane-1,10-diacetamide] | 100 µg/mL | 100 µg/mL |

Reference: US4401656A, “N-Substituted dimeric cyclopeptide derivatives” (Ayerst, McKenna & Harrison, Ltd., priority 1980, dated 1983)
